Laboratory results published in PMC8049054, “Systematic Assessment of Fragment Identification for Multitarget Drug Design” (Chemmedchem, 2021).

Legend:
5‐lipoxygenase (5‐LOX) = target: T1, 5‐lipoxygenase (5‐LOX) (Homo sapiens, UniProt P09917); test: Differential scanning fluorimetry (DSF) screen on 5-LOX; type: binding; details: 500 μM fragment, mean of duplicates
T1 construct: made in house; host or cells: E. coli BL21 (DE3)
T1 sequence (P09917 1-674): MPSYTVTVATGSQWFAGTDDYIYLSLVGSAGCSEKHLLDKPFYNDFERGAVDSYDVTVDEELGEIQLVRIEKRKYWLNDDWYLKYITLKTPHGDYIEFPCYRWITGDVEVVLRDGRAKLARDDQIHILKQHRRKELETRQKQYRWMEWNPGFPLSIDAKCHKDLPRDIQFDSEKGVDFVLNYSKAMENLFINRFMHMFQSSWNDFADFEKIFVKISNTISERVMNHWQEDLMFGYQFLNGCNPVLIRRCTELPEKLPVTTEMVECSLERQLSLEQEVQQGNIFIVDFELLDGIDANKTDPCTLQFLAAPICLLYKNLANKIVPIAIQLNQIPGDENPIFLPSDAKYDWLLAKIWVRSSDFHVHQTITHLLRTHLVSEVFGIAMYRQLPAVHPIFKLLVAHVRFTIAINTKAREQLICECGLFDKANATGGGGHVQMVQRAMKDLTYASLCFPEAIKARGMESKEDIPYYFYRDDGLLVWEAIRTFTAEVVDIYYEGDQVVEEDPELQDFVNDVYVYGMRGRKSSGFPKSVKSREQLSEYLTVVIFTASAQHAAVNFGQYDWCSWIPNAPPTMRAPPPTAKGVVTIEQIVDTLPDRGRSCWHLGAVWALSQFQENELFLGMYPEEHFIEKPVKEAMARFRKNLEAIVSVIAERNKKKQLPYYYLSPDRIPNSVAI
From the text: For the primary screen of this fragment library, we employed differential scanning fluorimetry (DSF, also known as thermal shift). DSF is generally applicable to a large panel of protein targets and provides a robust, low‐cost screening technology for fragment‐based approaches. ^[20] All five proteins of our interest are soluble and were recombinantly expressed in Escherichia coli. We performed an initial fragment screen on all five targets by DSF. The use of a uniform screening method for all targets ensured consistent data and provided the opportunity to identify false positive hits which interfered with the screening technology. The conditions of the DSF assay were optimized for the desired screening and validated with reference compounds (Table S1 in the Supporting Information). Compounds causing a positive thermal shift ΔT m≥1.0 °C were considered as active.
DSF measurement of the PDFL (single concentration of 500 μM, duplicates, 96‐well format) on the five proteins retrieved 19 fragment hits on sEH, 28 on LTA4H, 12 on 5‐LOX, 16 on RXRα, and 14 on FXR, respectively. Melting point distributions of the screening library for all five targets are depicted in Figure 2. Amongst the hits, three compounds (Table S2) gave a positive signal on all five proteins likely qualifying them as pan assay interference compounds (PAINS). ^[21] Fragments binding to multiple targets (Scheme 1) were identified for seven out of ten target combinations (Figure 2, Table 1). Among them, fragments 4, 6, 7, and 9 match previously identified privileged scaffolds for fatty acid mimetics. ^[14] […] Active ligands containing N‐phenylbenzamide 6 and the N‐phenylbenzylamine 7 have been described for four of the protein targets. Furthermore, indole, which has been characterized as a privileged heterocycle for fatty acid mimetics, ^[14] is present in fragments 5 and 10. Dual 5‐LOX/RXR ligand 1 was present in 5‐LOX inhibitors, while dual FXR/LTA4H modulator 3 is found among known FXR ligands. Fragments 2 (sEH/5‐LOX) and 8 (LTA4H/RXR) are novel scaffolds not appearing in known ligands of any of the five targets.
Figure S3: SDS page of the purified proteins (proteins RXRα and FXR after TEV cleavage) using a 14% polyacrylamide gel, which was stained with coomassi. Precision Plus Protein™ Unstained Protein Standard s (Bio-Rad Laboratories, Inc. ) was used […]
All experiments were performed as duplicates using MicroAmp fast 96 -well plates. Each plate contained 80 different compound wells and 16 DMSO control wells. First 0.8 µl of a 25 mM Preswick Library Fragment dilution in DMSO or pure DMSO were placed in each of the well (final concentration 500 µM). Then 39.2 µl of the master mi x (containing protein, Triton x -100, SYPRO® Orange Protein Gel Stain and buffer that corresponds to the tested protein) were added.
Table S4: Final concentrations in DSF experiments: […]
5-LOX 500 µM compound, 3.5 µM protein, 0.87x DPBS, 0.87 mM EDTA, 0.01% (W/V) Triton X-100, 2.1% DMSO and 5x SYPRO® with a pH = 7.5 […]
The measurements were performed using a iCycler iQ™ Single -Color Real Time PCR device with a heat rate of 1 °C per min, an excitation wavelength of 490 nm and an emission wavelength of 570 nm. The first derivation calculated by MyiQ Op tical Software 1.0 was analyzed using Microsoft Office Excel 2013 by comparing the maxima. A shift of 1 °C (in case of 5 -LOX 0.9°C) or more compared to the DMSO control were assumed as potentially binding of the fragment.
(1 picture or pasted object on this page, not shown here)

FXR = target: T2, FXR (Homo sapiens, UniProt Q96RI1); test: ITC measurement FXR LBD; type: binding; set-up: key: n.b.: no binding; w.b.: weak binding; details: 50 μM protein, 250 μM compound, 25 °C
T2 construct: His6-tag and TEV site (N, cleaved yes); made in house; host or cells: E. coli BL21 (DE3)
T2 sequence (Q96RI1 244-472 isoform Q96RI1-2): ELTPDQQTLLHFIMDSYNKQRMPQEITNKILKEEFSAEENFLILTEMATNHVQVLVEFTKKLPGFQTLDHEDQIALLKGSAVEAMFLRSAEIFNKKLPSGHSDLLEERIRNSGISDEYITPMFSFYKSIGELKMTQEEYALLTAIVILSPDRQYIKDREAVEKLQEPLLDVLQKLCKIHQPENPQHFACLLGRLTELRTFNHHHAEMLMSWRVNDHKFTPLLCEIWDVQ
Description: For hit validation, we employed secondary assays with orthogonal readouts to confirm fragment activities. Biochemical activity assays were chosen for the enzymes sEH, LTA4H, and 5‐LOX. […] RXRα and FXR modulation was assessed in cell‐based hybrid reporter gene assays. All ten compounds were tested at a single concentration of 500 μM in the sEH and LTA4H activity assays and with a concentration of 100 μM on 5‐LOX, RXRα, and FXR. Fragments showing an inhibition greater than 50 % (sEH‐H and LTA4H) or greater than 70 % (5‐LOX) as well as the hits determined in the DSF experiments were further characterized in full concentration‐response curves between 0.1 and 1000 μM. […] As alternative cell‐free assay we employed isothermal titration calorimetry (ITC) to determine binding affinity of the fragments towards the LBDs of both nuclear receptors. ITC was performed with a protein concentration of 50 μM and compound concentrations of 250 μM. […]
Final concentration per well was 3 nM sEH-Fl, 0.001 % Triton X-100, 25 mM Bis-tris, 0.1 mg/ml BSA, pH = 7.0, 1.6% DMSO […]

DSF/ΔT m 5‐LOX (5‐lipoxygenase (5‐LOX)) | FXR K d (FXR) | Structure (SMILES)
−1.1±0.0 °C | – | Oc1ccc(Cc2ccccc2)cc1 [Compound 4]
−0.1±0.0 °C | n.b. | Oc1ccc2cc[nH]c2c1 [Compound 5]
0.9±0.0 °C | – | CCN(Cc1ccccc1)c1ccccc1 [Compound 7]
−0.1±0.0 °C | w.b. | Clc1ccc2c(c1)Nc1ccccc1CC2 [Compound 8]
−1.1±0.0 °C | – | Oc1ccc(-c2ccc(F)cc2F)cc1 [Compound 9]
0.9±0.0 °C | n.b. | Fc1ccc(-c2c[nH]c3ccccc23)cc1 [Compound 10]

Continued, compound first:

Structure (SMILES) | DSF/ΔT m 5‐LOX (5‐lipoxygenase (5‐LOX)) | FXR K d (FXR)
c1ccc(N2CCNCC2)nc1 [Compound 1] | 0.9±0.0 °C | n.b.
Cc1cc(=O)n(-c2ccc(C)c(C)c2)[nH]1 [Compound 2] | 1.1±0.0 °C | –
CCCCOc1cc(C(=O)OC)ccc1N [Compound 3] | −1.1±0.0 °C | –
Cc1ccccc1C(=O)Nc1ccccc1 [Compound 6] | −1.4±2.1 °C | –
